PMC6383986, “Fragment-Based Covalent Ligand Screening Enables Rapid Discovery of Inhibitors for the RBR E3 Ubiquitin Ligase HOIP” (Journal of the American Chemical Society, 2019)

Biological target: T1, HOIP RBR R1032A mutant (Homo sapiens, UniProt Q96EP0, R1032A)
T1 construct: 697-1072; made in house; host or cells: E. coli BL21-GOLD(DE3)
Experiment: Protein LC-MS library screen, covalent labeling
Format: binding
Details: 20 μM compound, 2 μM protein, 24 h incubation
Method: 3.1 Experimental procedures
Acquisition of mass spectrometry data was carried out using positive electrospray ionisation (ESI) on an Agilent 6224 TOF LC-MS system equipped with a Diode Array Detector (DAD), a Wellplate sampler (held at 10 °C) and an Agilent PLRP-S reverse phase column (50 mm, 1 mm diameter, 5 µm particle size) held at 70 °C. The following mobile phases were used for the LC: Mobile phase A (MP A) = 0.2% Formic acid in water, v/v; Mobile phase B (MP B) = 0.2% Formic acid in MeCN, v/v. The following LC method was employed: 0-0.5 min (10→30% B in A, v/v), 0.5-5 min (30→55% […]
mL/min. Injection volume: 10 µL. The run length was 8 min, and equilibration time 1 min after each sample. […] Between 0.5 and 6 min the TOF mass spectrometer recorded 1 spectrum per second with a scan range between 700 and 2200 AMU. […]
thawed individually and analyzed by protein mass spectrometry as described above. The total ion counts (TICs) detected for unlabelled HOIP and labelled HOIP-(5) conjugate within a peak elution range of 10 seconds were used to calculate the ratio of labelled HOIP RBR over total HOIP RBR content for each sample. The averaged data from 3 independent experiments were analyzed according to a two-step model of reversible ligand binding followed by irreversible covalent […]

T1 sequence (Q96EP0 697-1072 R1032A): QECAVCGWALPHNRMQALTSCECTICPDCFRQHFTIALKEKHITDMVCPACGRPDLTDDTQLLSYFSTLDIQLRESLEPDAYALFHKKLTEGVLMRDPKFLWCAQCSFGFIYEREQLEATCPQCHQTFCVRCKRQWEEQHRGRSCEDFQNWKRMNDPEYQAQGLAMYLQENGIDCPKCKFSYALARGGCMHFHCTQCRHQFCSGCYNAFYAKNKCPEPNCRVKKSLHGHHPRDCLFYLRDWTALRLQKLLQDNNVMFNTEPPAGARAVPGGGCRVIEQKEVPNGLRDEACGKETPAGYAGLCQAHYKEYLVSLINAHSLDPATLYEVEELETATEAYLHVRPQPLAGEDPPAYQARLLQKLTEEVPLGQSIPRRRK

`COC(=O)/C=C/CNC(=O)c1cc2c([nH]c1=O)CCC2` [Compound 5] was tested, and the “labeling of HOIP RBR R1032A” value was over 85%.
